What was measured:
[1] = molecular target: T1, human α1b adrenergic receptor (Homo sapiens, UniProt P35368); experiment: Radioligand binding ([3H]prazosin) at cloned human α1b adrenergic receptor; conditions: LM(tk-) cell membranes, read-out: Binding affinities (pKi) α1b (converted)
T1 construct: The entire coding region of α1b (1563 bp); expressed in transfected cells
T1 sequence (P35368 1-520): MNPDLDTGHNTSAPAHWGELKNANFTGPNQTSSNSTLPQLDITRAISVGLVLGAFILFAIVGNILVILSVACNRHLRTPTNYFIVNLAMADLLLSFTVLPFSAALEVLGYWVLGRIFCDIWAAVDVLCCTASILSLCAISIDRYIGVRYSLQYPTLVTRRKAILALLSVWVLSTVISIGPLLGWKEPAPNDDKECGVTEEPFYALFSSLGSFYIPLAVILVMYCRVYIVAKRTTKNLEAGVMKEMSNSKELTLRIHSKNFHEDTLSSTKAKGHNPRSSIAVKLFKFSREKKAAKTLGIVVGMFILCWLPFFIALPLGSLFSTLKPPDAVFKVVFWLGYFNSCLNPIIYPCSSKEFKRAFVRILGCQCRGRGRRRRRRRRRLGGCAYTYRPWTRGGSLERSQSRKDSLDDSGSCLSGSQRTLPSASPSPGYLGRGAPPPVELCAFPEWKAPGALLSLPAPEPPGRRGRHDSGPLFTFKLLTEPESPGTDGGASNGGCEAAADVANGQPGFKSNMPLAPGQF
Description: (§1) First, conditions were determined which allowed measurement of the specific binding of a compound known to bind to the receptor. Then, the binding of the known compound to the receptor in membrane preparations was evaluated in the presence of several different concentrations of the test compound.
(§2) These cell lines were prepared by transfecting the cloned cDNA or cloned genomic DNA or constructs containing both genomic DNA and cDNA encoding the human receptors as described below.
α1b Human Adrenergic Receptor: The entire coding region of α1b (1563 bp), including 200 base pairs of 5′ untranslated sequence (5′ UT) and 600 bp of 3′ untranslated sequence (3′ UT), was cloned into the EcoRI site of pCEXV-3 eukaryotic expression vector. The construct involved ligating the full-length EcoRI brainstem cDNA fragment from λ ZapII into the expression vector. Stable cell lines were selected as described above. Membranes were harvested and assayed for their ability to bind [^3H]prazosin as described below (see Radioligand Binding assays). The cell line used herein was designated L-α1B and was deposited with the American Type Culture Collection, 12301 Parklawn Drive, Rockville, Md. 20852, U.S.A. under the provisions of the Budapest Treaty for the International Recognition of the Deposit of Microorganisms for the Purposes of Patent Procedure. The cell line L-α1B was accorded ATCC Accession No. CR 11139, on Sep. 29, 1992.
Radioligand Binding Assays for α1 Human Adrenergic Receptors: Transfected cells from culture flasks were scraped into 5 ml of 5 mM Tris-HCl, 5 mM EDTA, pH 7.5, and lysed by sonication. The cell lysates were centrifuged at 1000 rpm for 5 min at 4° C., and the supernatant was centrifuged at 30,000×g for 20 min at 4° C. The pellet was suspended in 50 mM Tris-HCl, 1 mM MgCl2, and 0.1% ascorbic acid at pH 7.5. Binding of the α1, antagonist [^3H]prazosin (0.5 nM, specific activity 76.2 Ci/mmol) to membrane preparations of LM(tk-) cells was done in a final volume of 0.25 ml and incubated at 37° C. for 1 hour. Nonspecific binding was determined in the presence of 10 μM phentolamine. The reaction was stopped by filtration through GF/B filters using a cell harvester.

human 5-HT1a receptor = molecular target: T2, human 5-HT1a receptor (Homo sapiens, UniProt P08908); experiment: Competition binding ([3H]-8-OH-DPAT) at cloned human 5-HT1a receptor; conditions: COS-7 cell membranes, read-out: Binding affinities (pKi) 5-HT1a (converted)
T2 construct: receptor open reading frames and variable non-coding 5′- and 3′-regions, was cloned into the eukaryotic expression vector pCEXV-3; expressed in transfected cells; host or cells: COS-7 cells, transient (DEAE-dextran); a deposited line 5-HT1A-3 (ATCC CRL 11889) is also named
T2 sequence (P08908 1-422): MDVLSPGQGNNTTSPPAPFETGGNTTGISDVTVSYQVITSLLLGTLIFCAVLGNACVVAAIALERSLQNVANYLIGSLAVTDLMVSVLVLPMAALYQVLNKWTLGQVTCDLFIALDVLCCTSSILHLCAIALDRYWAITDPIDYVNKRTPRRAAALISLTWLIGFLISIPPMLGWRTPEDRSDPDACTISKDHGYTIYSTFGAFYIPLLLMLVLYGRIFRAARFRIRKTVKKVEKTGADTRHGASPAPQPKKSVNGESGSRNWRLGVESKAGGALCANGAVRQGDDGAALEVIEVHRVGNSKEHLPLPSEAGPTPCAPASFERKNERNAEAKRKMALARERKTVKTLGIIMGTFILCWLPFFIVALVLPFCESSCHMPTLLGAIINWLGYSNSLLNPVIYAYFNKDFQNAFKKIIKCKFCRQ
Description: as §1, §2
The cDNA corresponding to the ^5-HT1a receptor open reading frames and variable non-coding 5′- and 3′-regions, was cloned into the eukaryotic expression vector pCEXV-3. These constructs were transfected transiently into COS-7 cells by the DEAE-dextran method. Cells were harvested after 72 hours and lysed by sonication in 5 mM Tris-HCl, 5 mM EDTA, pH 7.5. The cell lysates were centrifuged at 1000 rpm for 5 minutes at 4° C., and the supernatant was centrifuged at 30,000×g for 20 minutes at 4° C. The pellet was suspended in 50 mM Tris-HCl buffer (pH 7.7 at room temperature) containing 10 mM MgSO4, 0.5 mM EDTA, and 0.1% ascorbate. The affinity of compounds at 5-HT1a receptors were determined in equilibrium competition binding assays using [^3H]-8-OH-DPAT. Nonspecific binding was defined by the addition of 10 μM mianserin. The bound radioligand was separated by filtration through GF/B filters using a cell harvester.

[2] = test system: conscious, normotensive rats; experiment: Mean arterial blood pressure in conscious, normotensive rats; format: in vivo, rat; conditions: 4.0 mg/kg i.v., 0-60 min
Description: Rats were anesthetized and a PE50 chronic indwelling cannula was placed in the abdominal aorta for measurement of blood pressure. On the following day, 5 rats each were administered vehicle (1% DMSO) or Compound 7 (4.0 mg/kg in 1% DMSO, i.v.) and mean blood pressure measurements were recorded at 0, 5, 30, and 60 minutes thereafter.

Structure (SMILES) | Ki [1] [nM] | Ki (human 5-HT1a receptor) [nM] | effect on mean blood pressure [2]
O=C1CC2(CCCC2)CC(=O)N1CCN1CCN(c2c(F)cccc2F)CC1 [Compound 14, 8-{2-[4-(2,6-Difluorophenyl)piperazino]ethyl}-8-azaspiro[4.5]decane-7,9-dione] | 126 | 7.94 | 
C[C@@H](CN1CCN(c2cc(F)ccc2F)CC1)N1C(=O)CC2(CCCC2)CC1=O [Compound 10, 8-{(1S)-2-[4-(2,5-Difluorophenyl)piperazin-1-yl]-1-methylethyl}-8-azaspiro[4.5]decane-7,9-dione] | 3980 | 2510 | 
O=C1CC2(CCCC2)CC(=O)N1CCN1CCN(c2cc(F)ccc2F)CC1 [Compound 6, 8-{2-[4-(2,5-Difluorophenyl)piperazin-1-yl]ethyl}-8-azaspiro[4.5]decane-7,9-dione] | 50.1 | 25.1 | 
C[C@H](CN1CCN(c2cc(F)ccc2F)CC1)N1C(=O)CC2(CCCC2)CC1=O [Compound 8, 8-{(1R)-2-[4-(2,5-Difluorophenyl)piperazin-1-yl]-1-methylethyl}-8-azaspiro[4.5]decane-7,9-dione] | 63.1 | 50.1 | 
O=C1CC2(CCCC2)CC(=O)N1CCN1CCN(c2cc(F)c(F)cc2F)CC1 [Compound 7, 8-{2-[4-(2,4,5-Trifluorophenyl)piperazin-1-yl]ethyl}-8-azaspiro[4.5]decane-7,9-dione] | 398 | 398 | no reduction in blood pressure
O=C1CC2(CCCC2)CC(=O)N1CCN1CCN(c2ccc(F)c(F)c2)CC1 [Compound 15, 8-{2-[4-(3,4-Difluorophenyl)piperazin-1-yl]ethyl}-8-azaspiro[4.5]decane-7,9-dione] | 1580 | 50.1 | 
COc1ccc(F)cc1C1CCN(CCN2C(=O)CC3(CCCC3)CC2=O)CC1 [Compound 12, 8-{2-[4-(5-Fluoro-2-methoxyphenyl)piperidin-1-yl]ethyl}-8-azaspiro[4.5]decane-7,9-dione] | 63.1 | 7.94 | 
Cc1ccc(Cl)cc1N1CCN(CCN2C(=O)CC3(CCCC3)CC2=O)CC1 [Compound 13, 8-{2-[4-(5-Chloro-2-methylphenyl)piperazino]ethyl}-8-azaspiro [4.5]decane-7,9-dione] | 3160 | 251 | 

Reference: patent US6706716B2, “Compounds specific for the human α1d adrenergic receptor and uses thereof” (Synaptic Pharmaceutical Corporation, priority 1998, dated 2004)
